According to patent US8796245B2 (TetraPhase Pharmaceuticals, Inc., priority 2008, dated 2014):
Values after ≈ are worked out from the molar mass of the structure shown.

Tests used:
Format in all cases: cell-based
[1] = system: S. aureus ATCC 13709 (SA100, MSSA, Smith strain); assay: Minimum inhibitory concentration assay, SA100; conditions: Staphylococcus aureus; S. aureus ATCC 13709, MSSA Smith strain; read-out: MICs SA100
Procedure, shortened: (§1)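 Inoculum of 0.5 McFarland was diluted 1:125 in Mueller Hinton Broth. Streptococcus media were blood-supplemented. Plates with serial compound dilutions were incubated overnight at 37° C, and MIC was recorded as the lowest inhibitory concentration.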

[2] = system: S. aureus ATCC 29213 (SA101, MSSA); assay: Minimum inhibitory concentration assay, SA101; conditions: Staphylococcus aureus; S. aureus ATCC 29213, MSSA control; read-out: MICs SA101
Procedure, shortened: as §1

[3] = system: E. faecalis EF159 (tet resistant: tetM); assay: Minimum inhibitory concentration assay, EF159; conditions: Enterococcus faecalis, read-out: MICs EF159
Procedure, shortened: as §1

[4] = system: E. faecalis ATCC 29212 (EF103); assay: Minimum inhibitory concentration assay, EF103; conditions: Enterococcus faecalis, ATCC29212, read-out: MICs EF103
Procedure, shortened: as §1

[5] = system: A. baumanii ATCC 19606 (AB110); assay: Minimum inhibitory concentration assay, AB110; conditions: Acinetobacter baumannii, ATCC19606; A. baumanii ATCC 19606, wt; read-out: MICs AB110
Procedure, shortened: as §1

[6] = system: S. pneumoniae SP160 (tet resistant: tet M); assay: Minimum inhibitory concentration assay, SP160; conditions: Streptococcus pneumoniae, read-out: MICs SP160
Procedure, shortened: as §1

[7] = system: K. pneumoniae ATCC 13883 (KP109); assay: Minimum inhibitory concentration assay, KP109; conditions: Klebsiella pneumoniae, ATCC13883; K. pneumoniae ATCC 13883, wt; read-out: MICs KP109
Procedure, shortened: as §1

[8] = system: P. aeruginosa ATCC 27853 (PA111); assay: Minimum inhibitory concentration assay, PA111; conditions: Pseudomonas aeruginosa, ATCC27853; P. aeruginosa ATCC 27853, wt; read-out: MICs PA111
Procedure, shortened: as §1

[9] = system: E. cloacae ATCC 13047 (EC108); assay: Minimum inhibitory concentration assay, EC108; conditions: Enterobacter cloacae, ATCC13047; E. cloacae ATCC 13047, wt; read-out: MICs EC108
Procedure, shortened: as §1

[10] = system: S. aureus SA161 (tet resistant: tet(M) ribosomal protection); assay: Minimum inhibitory concentration assay, SA161; conditions: Staphylococcus aureus, read-out: MICs SA161
Procedure, shortened: as §1

[11] = system: E. coli ATCC 25922 (EC107); assay: Minimum inhibitory concentration assay, EC107; conditions: Escherichia coli, ATCC25922; E. coli ATCC 25922, wt; read-out: MICs EC107
Procedure, shortened: as §1

[12] = system: E. coli EC155 (tet resistant: tetA efflux); assay: microbe, parasite or virus in culture; conditions: Escherichia coli; E. coli tet resistant: tetA (efflux); read-out: MICs EC155
Procedure, shortened: as §1

[13] = system: S. aureus SA158 (tet resistant: tetK efflux); assay: microbe, parasite or virus in culture; conditions: Staphylococcus aureus, read-out: MICs SA158
Procedure, shortened: as §1

[14] = system: K. pneumoniae KP153 (tet resistant: tetA efflux); assay: microbe, parasite or virus in culture; conditions: Klebsiella pneumoniae, read-out: MICs KP153
Procedure, shortened: as §1

[15] = system: S. pneumoniae ATCC 49619 (SP106); assay: Minimum inhibitory concentration assay, SP106; conditions: Streptococcus pneumoniae, ATCC49619; S. pneumoniae ATCC 49619, wt; read-out: MICs SP106
Procedure, shortened: as §1

Structure (SMILES) | MIC [1] | MIC [2] | MIC [3] | MIC [4] | MIC [5] | MIC [6] | MIC [7] | MIC [8] | MIC [9] | MIC [10] | MIC [11] | MIC [12] | MIC [13] | MIC [14] | MIC [15]
CN(C)[C@@H]1C(O)=C(C(N)=O)C(=O)[C@@]2(O)C(O)=C3C(=O)c4c(O)c(NC(=O)CNC(C)(C)C)cc(F)c4C[C@H]3C[C@@H]12 [Compound 11] | 0.25 µg/mL (≈ 0.446 µM) | 0.125 µg/mL (≈ 0.223 µM) | 0.125 µg/mL (≈ 0.223 µM) | 0.0625 µg/mL (≈ 0.111 µM) | 0.5 µg/mL (≈ 0.892 µM) | ≤ 0.0156 µg/mL | 1 µg/mL (≈ 1.78 µM) | 16 µg/mL (≈ 28.5 µM) | 1 µg/mL (≈ 1.78 µM) | 0.25 µg/mL (≈ 0.446 µM) | 0.25 µg/mL (≈ 0.446 µM) | 2 µg/mL (≈ 3.57 µM) | 0.0625 µg/mL (≈ 0.111 µM) | 2 µg/mL (≈ 3.57 µM) | ≤ 0.0156 µg/mL
CN(C)[C@@H]1C(O)=C(C(N)=O)C(=O)[C@@]2(O)C(O)=C3C(=O)c4c(O)c(NC(=O)CNCC(F)(F)F)cc(F)c4C[C@H]3C[C@@H]12 [Compound 22] | 1 µg/mL (≈ 1.71 µM) | 1 µg/mL (≈ 1.71 µM) | 4 µg/mL (≈ 6.82 µM) | 2 µg/mL (≈ 3.41 µM) | 2 µg/mL (≈ 3.41 µM) | 1 µg/mL (≈ 1.71 µM) | 32 µg/mL (≈ 54.6 µM) | > 32 µg/mL | > 32 µg/mL | 2 µg/mL (≈ 3.41 µM) | 16 µg/mL (≈ 27.3 µM) | > 32 µg/mL | 4 µg/mL (≈ 6.82 µM) | > 32 µg/mL | 0.5 µg/mL (≈ 0.853 µM)
CN(C)[C@@H]1C(O)=C(C(N)=O)C(=O)[C@@]2(O)C(O)=C3C(=O)c4c(O)c(NC(=O)CN5CC[C@H](O)C5)cc(F)c4C[C@H]3C[C@@H]12 [Compound 40] | 1 µg/mL (≈ 1.74 µM) | 1 µg/mL (≈ 1.74 µM) | 1 µg/mL (≈ 1.74 µM) | 1 µg/mL (≈ 1.74 µM) | 8 µg/mL (≈ 13.9 µM) | 0.5 µg/mL (≈ 0.87 µM) | 8 µg/mL (≈ 13.9 µM) | 32 µg/mL (≈ 55.7 µM) | 4 µg/mL (≈ 6.96 µM) | 1 µg/mL (≈ 1.74 µM) | 4 µg/mL (≈ 6.96 µM) | > 32 µg/mL | 16 µg/mL (≈ 27.8 µM) | 32 µg/mL (≈ 55.7 µM) | 0.0625 µg/mL (≈ 0.109 µM)
CN(C)[C@H]1CCN(CC(=O)Nc2cc(F)c3c(c2O)C(=O)C2=C(O)[C@]4(O)C(=O)C(C(N)=O)=C(O)[C@@H](N(C)C)[C@@H]4C[C@@H]2C3)C1 [Compound 38] | 8 µg/mL (≈ 13.3 µM) | 8 µg/mL (≈ 13.3 µM) | 16 µg/mL (≈ 26.6 µM) | 8 µg/mL (≈ 13.3 µM) | > 32 µg/mL | 8 µg/mL (≈ 13.3 µM) | > 32 µg/mL | > 32 µg/mL | > 32 µg/mL | 16 µg/mL (≈ 26.6 µM) | > 32 µg/mL | > 32 µg/mL | 32 µg/mL (≈ 53.2 µM) | > 32 µg/mL | 2 µg/mL (≈ 3.32 µM)
CN(C)[C@@H]1C(O)=C(C(N)=O)C(=O)[C@@]2(O)C(O)=C3C(=O)c4c(O)c(NC(=O)CNCC5CC5)cc(F)c4C[C@H]3C[C@@H]12 [Compound 20] | 0.25 µg/mL (≈ 0.448 µM) | ≤ 0.0156 µg/mL | 0.0625 µg/mL (≈ 0.112 µM) | ≤ 0.0156 µg/mL | 1 µg/mL (≈ 1.79 µM) | ≤ 0.0156 µg/mL | 1 µg/mL (≈ 1.79 µM) | 8 µg/mL (≈ 14.3 µM) | 1 µg/mL (≈ 1.79 µM) | 0.25 µg/mL (≈ 0.448 µM) | 0.25 µg/mL (≈ 0.448 µM) | 8 µg/mL (≈ 14.3 µM) | 0.5 µg/mL (≈ 0.895 µM) | 4 µg/mL (≈ 7.16 µM) | ≤ 0.0156 µg/mL
CCCCCCNCC(=O)Nc1cc(F)c2c(c1O)C(=O)C1=C(O)[C@]3(O)C(=O)C(C(N)=O)=C(O)[C@@H](N(C)C)[C@@H]3C[C@@H]1C2 [Compound 14] | 0.25 µg/mL (≈ 0.425 µM) | 0.5 µg/mL (≈ 0.849 µM) | 0.25 µg/mL (≈ 0.425 µM) | 0.125 µg/mL (≈ 0.212 µM) | 0.25 µg/mL (≈ 0.425 µM) | 0.125 µg/mL (≈ 0.212 µM) | 1 µg/mL (≈ 1.7 µM) | 16 µg/mL (≈ 27.2 µM) | 2 µg/mL (≈ 3.4 µM) | 0.5 µg/mL (≈ 0.849 µM) | 0.5 µg/mL (≈ 0.849 µM) | 4 µg/mL (≈ 6.8 µM) | 0.25 µg/mL (≈ 0.425 µM) | 2 µg/mL (≈ 3.4 µM) | 0.03 µg/mL (≈ 0.051 µM)
CN(CC(=O)Nc1cc(F)c2c(c1O)C(=O)C1=C(O)[C@]3(O)C(=O)C(C(N)=O)=C(O)[C@@H](N(C)C)[C@@H]3C[C@@H]1C2)C1CCCC1 [Compound 31] | 2 µg/mL (≈ 3.41 µM) | 1 µg/mL (≈ 1.7 µM) | 1 µg/mL (≈ 1.7 µM) | 0.5 µg/mL (≈ 0.852 µM) | 0.5 µg/mL (≈ 0.852 µM) | 0.25 µg/mL (≈ 0.426 µM) | 4 µg/mL (≈ 6.82 µM) | > 32 µg/mL | 8 µg/mL (≈ 13.6 µM) | 2 µg/mL (≈ 3.41 µM) | 2 µg/mL (≈ 3.41 µM) | 8 µg/mL (≈ 13.6 µM) | 1 µg/mL (≈ 1.7 µM) | 8 µg/mL (≈ 13.6 µM) | 0.25 µg/mL (≈ 0.426 µM)
CCN(CC)CC(=O)Nc1cc(F)c2c(c1O)C(=O)C1=C(O)[C@]3(O)C(=O)C(C(N)=O)=C(O)[C@@H](N(C)C)[C@@H]3C[C@@H]1C2 [Compound 25] | 0.125 µg/mL (≈ 0.223 µM) | 0.125 µg/mL (≈ 0.223 µM) | 0.0625 µg/mL (≈ 0.111 µM) | ≤ 0.0156 µg/mL | 0.125 µg/mL (≈ 0.223 µM) | ≤ 0.0156 µg/mL | 2 µg/mL (≈ 3.57 µM) | 32 µg/mL (≈ 57.1 µM) | 2 µg/mL (≈ 3.57 µM) | 0.125 µg/mL (≈ 0.223 µM) | 0.5 µg/mL (≈ 0.892 µM) | 8 µg/mL (≈ 14.3 µM) | 0.0313 µg/mL (≈ 0.0558 µM) | 8 µg/mL (≈ 14.3 µM) | ≤ 0.0156 µg/mL
COC[C@@H]1CCCN1CC(=O)Nc1cc(F)c2c(c1O)C(=O)C1=C(O)[C@]3(O)C(=O)C(C(N)=O)=C(O)[C@@H](N(C)C)[C@@H]3C[C@@H]1C2 [Compound 41] | 1 µg/mL (≈ 1.66 µM) | 1 µg/mL (≈ 1.66 µM) | 2 µg/mL (≈ 3.32 µM) | 1 µg/mL (≈ 1.66 µM) | 0.5 µg/mL (≈ 0.83 µM) | 0.125 µg/mL (≈ 0.207 µM) | 8 µg/mL (≈ 13.3 µM) | > 32 µg/mL | 16 µg/mL (≈ 26.6 µM) | 2 µg/mL (≈ 3.32 µM) | 4 µg/mL (≈ 6.64 µM) | 16 µg/mL (≈ 26.6 µM) | 1 µg/mL (≈ 1.66 µM) | 16 µg/mL (≈ 26.6 µM) | 0.125 µg/mL (≈ 0.207 µM)
CCN(C)CC(=O)Nc1cc(F)c2c(c1O)C(=O)C1=C(O)[C@]3(O)C(=O)C(C(N)=O)=C(O)[C@@H](N(C)C)[C@@H]3C[C@@H]1C2 [Compound 24] | 0.25 µg/mL (≈ 0.457 µM) | 0.25 µg/mL (≈ 0.457 µM) | ≤ 0.0156 µg/mL | ≤ 0.0156 µg/mL | 0.0313 µg/mL (≈ 0.0573 µM) | ≤ 0.0156 µg/mL | 1 µg/mL (≈ 1.83 µM) | 16 µg/mL (≈ 29.3 µM) | 2 µg/mL (≈ 3.66 µM) | 0.125 µg/mL (≈ 0.229 µM) | 0.5 µg/mL (≈ 0.915 µM) | 8 µg/mL (≈ 14.6 µM) | 0.125 µg/mL (≈ 0.229 µM) | 8 µg/mL (≈ 14.6 µM) | ≤ 0.0156 µg/mL
